# What was measured:
# [1] = system: mAb 13C8; assay: colloidal gold-based LFIA with mAb 13C8; format: binding, BALB/c mice
# Description: Ten milliliters of colloidal gold solution was adjusted to pH 8.0 with K2CO3 (0.1 M) at room temperature, and then 60 μg of the antibody was added. After mixing for 30 min at room temperature, 200 μL of 20% (w/v) BSA was added to block the free colloidal gold for 20 min at room temperature. Then, the mixture was centrifuged at 15,777× g for 30 min at 4 °C. Finally, the precipitate was resuspended in 2000 μL of PBS (0.005 M at pH 8.2, containing 10% BSA, 2% glucose, 0.5% alanine, 5% PEG2000 and 0.1% NaN3, w/v) and stored at 4 °C.
# An immunochromatographic test strip consisted of a sample pad, a conjugate pad, a nitrocellulose (NC) membrane and an absorbent pad. The mAb–colloidal gold conjugates (700 μL) were sprayed onto the conjugate pad (6 mm × 300 mm) and then dried under vacuum for 20 h at room temperature. DDB-OVA (50 μg/mL) or MDA-OVA (30 μg/mL) and goat anti-mouse IgG antibodies were dispensed on the NC membrane at a rate of 1 μL/cm as the test line (T line) and control line (C line), respectively. The NC membrane was then dried at 37 °C for 3 h. The sample pads, conjugate pads, NC membranes and absorbent pads were attached to the PVC plastic support, and then the assembled plate was cut to obtain 4 mm test strips and placed in a rigid plastic cassette.
# We also dispensed DDB-OVA (50 μg/mL) and MDA-OVA (30 μg/mL) onto the NC membrane and labeled antibody 13C8 with colloidal gold to prepare colloidal gold LFIA test strips.
# [2] = system: mAb 7F9; assay: ELISA reactivity of hybridoma supernatant, cell line 7F9; format: binding, BALB/c mice; settings: cell line 7F9 supernatant, 50 ng/mL pesticide
# Description: The desired antibodies with the highest affinity were screened by icELISA with carbofuran as a competitive compound, and hybridoma cells were cloned by the limited dilution method. Then, the selected hybridoma cells were injected into mice for ascites production. Finally, the mAbs were purified by (NH4)2SO4 with saturation of 50% and further purified by an SPA column.
# Microplates were coated with coating antigens. Different concentrations of the standard (50 µL) and the mAb (50 µL) were added to each well, and the plates were incubated for 20 min at 37 °C. The plates were washed with PBS (0.01 M, containing 0.05% (v/v) Triton X-100), 100 μL of goat anti-mouse IgG-HRP conjugate solution was added to each well, and the plates were incubated for 20 min at 37 °C. After the plates were washed with PBS (0.01 M, containing 0.05% Triton X-100, v/v), 100 µL of TMB single-component substrate solution was added to each well, followed by incubation at 37 °C for 10 min. Finally, the reaction was terminated, and the absorbance at 450 nm was measured by a microplate reader.
# The inhibition ratio (I%) was calculated as (B0-B)/B0 × 100%. IC50 is the concentration of the carbofuran at an I% of 50%, and the limit of detection (LOD) was determined as the concentration showing 10% of inhibition.
# Then, the reactivity of the supernatant of the six cell lines to 50 ng/mL carbofuran, benfuracarb and carbosulfan was assessed by ELISA, and the results are shown in Table 1. […] Because 13C8 had the highest reactivity with carbofuran, benfuracarb and carbosulfan among the six cell lines, it was injected into mice for ascites production, and the mAbs were purified by a protein A column for further experiments.
smiles,measurement,setting,value
CNC(=O)Oc1cccc2c1OC(C)(C)C2 [carbofuran],cut-off (colloidal gold LFIA),[1]; heterologous coating antigen MDA-OVA (30 μg/mL),3 ng/mL
same,change of T line versus 0 ng/mL,"[1]; heterologous coating antigen MDA-OVA, 1 ng/mL carbofuran",significantly lighter
same,change of T line versus 0 ng/mL,"[1]; homologous coating antigen DDB-OVA, 1000 ng/mL carbofuran",almost no change
same,Reactivity of mAb (I%),[2],76%

# Reference: PMC9332470, “Production and Selection of Antibody–Antigen Pairs for the Development of Immunoenzyme Assay and Lateral Flow Immunoassay Methods for Carbofuran and Its Analogues” (Biosensors, 2022)
